Experiment [1] deals with T1, Tyrosine-protein kinase TXK (Homo sapiens, UniProt P42681).
T1 sequence (P42681 whole entry): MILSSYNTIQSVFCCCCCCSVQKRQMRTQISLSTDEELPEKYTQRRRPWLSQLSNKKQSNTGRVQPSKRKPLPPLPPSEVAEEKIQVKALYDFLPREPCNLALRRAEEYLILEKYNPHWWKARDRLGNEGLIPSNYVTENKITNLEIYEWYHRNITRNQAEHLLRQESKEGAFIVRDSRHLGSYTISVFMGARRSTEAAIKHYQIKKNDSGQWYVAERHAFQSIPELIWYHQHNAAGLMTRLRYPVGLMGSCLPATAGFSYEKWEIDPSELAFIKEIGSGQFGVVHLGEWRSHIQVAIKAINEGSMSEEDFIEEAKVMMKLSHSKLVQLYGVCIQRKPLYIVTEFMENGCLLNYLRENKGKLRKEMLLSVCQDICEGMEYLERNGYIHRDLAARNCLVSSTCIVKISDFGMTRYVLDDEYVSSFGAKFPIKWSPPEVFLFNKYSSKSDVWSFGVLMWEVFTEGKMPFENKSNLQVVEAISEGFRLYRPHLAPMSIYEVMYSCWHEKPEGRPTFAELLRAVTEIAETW
The experiment in a line: Inhibition of TXK (unknown origin).

The target in experiment [2] is T2, Aurora kinase B (Homo sapiens, UniProt Q96GD4). The experiment in a line: Inhibition of Aurora-B (unknown origin) using 5FAM-PKAtide as substrate after 120 mins.
T2 sequence (Q96GD4 whole entry): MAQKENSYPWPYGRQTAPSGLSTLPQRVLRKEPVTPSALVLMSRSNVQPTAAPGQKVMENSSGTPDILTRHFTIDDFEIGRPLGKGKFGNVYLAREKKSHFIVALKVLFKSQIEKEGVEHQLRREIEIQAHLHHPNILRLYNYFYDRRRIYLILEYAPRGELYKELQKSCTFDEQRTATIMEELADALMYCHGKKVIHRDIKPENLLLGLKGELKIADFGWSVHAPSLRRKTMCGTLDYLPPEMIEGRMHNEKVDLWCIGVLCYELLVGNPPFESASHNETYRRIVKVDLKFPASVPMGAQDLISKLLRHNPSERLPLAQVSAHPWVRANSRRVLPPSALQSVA
For a further experiment, the target named is Insulin receptor (Homo sapiens, UniProt P06213). Briefly: Inhibition of IR (unknown origin).
Sequence of Insulin receptor (P06213 28-758 limits assumed): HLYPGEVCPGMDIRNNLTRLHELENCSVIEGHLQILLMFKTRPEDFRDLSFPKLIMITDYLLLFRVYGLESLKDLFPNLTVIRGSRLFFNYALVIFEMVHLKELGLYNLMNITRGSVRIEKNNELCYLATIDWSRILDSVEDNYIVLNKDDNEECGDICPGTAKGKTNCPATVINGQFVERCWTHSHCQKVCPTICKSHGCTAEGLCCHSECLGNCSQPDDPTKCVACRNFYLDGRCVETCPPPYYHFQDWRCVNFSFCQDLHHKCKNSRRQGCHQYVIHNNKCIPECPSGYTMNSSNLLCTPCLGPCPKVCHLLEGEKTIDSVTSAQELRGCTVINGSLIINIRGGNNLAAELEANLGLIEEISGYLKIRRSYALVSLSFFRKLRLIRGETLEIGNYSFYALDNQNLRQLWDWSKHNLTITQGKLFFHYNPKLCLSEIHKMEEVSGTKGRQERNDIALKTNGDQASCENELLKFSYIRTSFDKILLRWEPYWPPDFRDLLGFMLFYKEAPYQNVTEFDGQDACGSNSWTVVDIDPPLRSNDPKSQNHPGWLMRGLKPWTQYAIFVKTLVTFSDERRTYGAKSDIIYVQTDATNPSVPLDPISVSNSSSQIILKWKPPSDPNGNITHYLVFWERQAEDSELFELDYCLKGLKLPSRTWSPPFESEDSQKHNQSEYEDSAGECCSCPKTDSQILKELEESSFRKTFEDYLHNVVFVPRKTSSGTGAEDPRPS
Sequence of Insulin receptor (P06213 763-1382 limits assumed): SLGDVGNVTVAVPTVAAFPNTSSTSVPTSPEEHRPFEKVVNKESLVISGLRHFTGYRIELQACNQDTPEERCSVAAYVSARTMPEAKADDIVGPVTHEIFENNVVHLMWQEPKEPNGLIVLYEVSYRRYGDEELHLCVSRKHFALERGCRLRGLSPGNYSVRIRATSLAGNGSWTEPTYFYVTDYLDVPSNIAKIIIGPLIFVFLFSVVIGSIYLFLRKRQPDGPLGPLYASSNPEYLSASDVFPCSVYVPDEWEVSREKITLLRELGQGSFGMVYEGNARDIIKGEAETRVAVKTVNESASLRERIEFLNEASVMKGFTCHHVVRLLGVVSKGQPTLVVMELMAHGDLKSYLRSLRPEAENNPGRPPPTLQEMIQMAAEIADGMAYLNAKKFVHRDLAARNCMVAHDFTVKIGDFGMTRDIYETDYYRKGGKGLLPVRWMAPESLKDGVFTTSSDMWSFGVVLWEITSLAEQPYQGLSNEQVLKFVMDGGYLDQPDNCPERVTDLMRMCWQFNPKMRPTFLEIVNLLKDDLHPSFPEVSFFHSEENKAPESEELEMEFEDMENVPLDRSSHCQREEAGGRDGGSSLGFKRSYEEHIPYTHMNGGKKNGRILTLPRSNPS
A further experiment deals with PBMC. Briefly: Inhibition of cytostim-induced IFNgamma production in human PBMC treated 1 hr before cytostim stimulation measured after 18 hrs by MSD assay. The class given is functional, cell-based.
The target of experiment [3] is T3, Tyrosine-protein kinase Tec (Homo sapiens, UniProt P42680).
T3 sequence (P42680 whole entry): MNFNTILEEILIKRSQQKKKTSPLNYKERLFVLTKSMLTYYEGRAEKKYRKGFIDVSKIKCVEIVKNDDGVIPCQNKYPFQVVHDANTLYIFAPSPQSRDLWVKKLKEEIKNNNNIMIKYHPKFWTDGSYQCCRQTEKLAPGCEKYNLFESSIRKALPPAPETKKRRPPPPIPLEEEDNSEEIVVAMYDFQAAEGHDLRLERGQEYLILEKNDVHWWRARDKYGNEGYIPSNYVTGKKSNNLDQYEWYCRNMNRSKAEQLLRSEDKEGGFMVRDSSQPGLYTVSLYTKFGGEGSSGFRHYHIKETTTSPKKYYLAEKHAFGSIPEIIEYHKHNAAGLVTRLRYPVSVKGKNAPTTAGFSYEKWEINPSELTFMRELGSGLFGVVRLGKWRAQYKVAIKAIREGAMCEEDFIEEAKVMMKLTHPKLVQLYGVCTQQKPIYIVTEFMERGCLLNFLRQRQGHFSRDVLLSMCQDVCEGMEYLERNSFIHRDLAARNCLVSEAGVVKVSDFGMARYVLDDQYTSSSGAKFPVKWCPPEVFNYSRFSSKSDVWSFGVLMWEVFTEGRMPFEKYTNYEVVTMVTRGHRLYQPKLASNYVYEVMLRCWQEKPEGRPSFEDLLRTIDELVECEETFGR
The experiment in a line: Inhibition of Tec (unknown origin).

Experiment [4] deals with T4, Tyrosine-protein kinase ITK/TSK (Homo sapiens, UniProt Q08881).
T4 sequence (Q08881 whole entry): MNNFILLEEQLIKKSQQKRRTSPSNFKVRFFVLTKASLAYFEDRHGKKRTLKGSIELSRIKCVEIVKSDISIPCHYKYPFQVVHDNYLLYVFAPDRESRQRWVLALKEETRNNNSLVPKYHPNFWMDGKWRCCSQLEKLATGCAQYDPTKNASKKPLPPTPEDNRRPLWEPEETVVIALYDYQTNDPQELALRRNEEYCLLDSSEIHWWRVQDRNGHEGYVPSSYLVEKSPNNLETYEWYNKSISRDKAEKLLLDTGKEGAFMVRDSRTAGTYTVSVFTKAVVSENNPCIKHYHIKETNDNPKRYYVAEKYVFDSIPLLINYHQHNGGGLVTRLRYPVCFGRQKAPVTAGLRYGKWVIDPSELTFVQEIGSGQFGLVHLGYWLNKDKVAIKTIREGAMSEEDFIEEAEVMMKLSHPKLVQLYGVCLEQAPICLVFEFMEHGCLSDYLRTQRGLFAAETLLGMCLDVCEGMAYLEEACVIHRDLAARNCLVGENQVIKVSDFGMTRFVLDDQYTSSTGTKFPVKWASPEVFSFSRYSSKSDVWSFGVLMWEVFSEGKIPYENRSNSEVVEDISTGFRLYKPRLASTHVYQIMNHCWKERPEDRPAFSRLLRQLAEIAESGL
The experiment in a line: Inhibition of recombinant human FLAG-tagged ITK using biotinylated GST-SAM68 as substrate after 30 mins.

Experiment [5] concerns the target Tyrosine-protein kinase BTK (Homo sapiens, UniProt Q06187). The experiment in a line: Inhibition of Btk (unknown origin).
In experiment [6] the target is T2, Aurora kinase B. Briefly: Inhibition of Aurora-B (unknown origin).
In experiment [7] the target is T5, Interleukin-1 receptor-associated kinase 4 (Homo sapiens, UniProt Q9NWZ3).
T5 sequence (Q9NWZ3 whole entry): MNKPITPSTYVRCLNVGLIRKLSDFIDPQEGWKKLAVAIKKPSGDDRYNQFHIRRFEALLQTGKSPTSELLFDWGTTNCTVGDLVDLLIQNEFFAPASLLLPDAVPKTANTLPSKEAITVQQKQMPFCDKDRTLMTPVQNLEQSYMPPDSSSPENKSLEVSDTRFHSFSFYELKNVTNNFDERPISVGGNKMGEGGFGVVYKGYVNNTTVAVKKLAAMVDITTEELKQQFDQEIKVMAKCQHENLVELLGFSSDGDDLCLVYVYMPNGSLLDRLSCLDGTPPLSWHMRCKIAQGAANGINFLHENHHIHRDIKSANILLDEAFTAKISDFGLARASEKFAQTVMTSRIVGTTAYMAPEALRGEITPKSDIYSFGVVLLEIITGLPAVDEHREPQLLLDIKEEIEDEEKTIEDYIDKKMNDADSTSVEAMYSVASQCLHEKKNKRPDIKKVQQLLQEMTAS
The experiment in a line: Inhibition of IRAK4 (unknown origin).

Experiment [8] addresses Epidermal growth factor receptor (Homo sapiens, UniProt P00533). The experiment in a line: Inhibition of EGFR (unknown origin).
In experiment [9] the target is Calcium/calmodulin-dependent protein kinase kinase 2 (Homo sapiens, UniProt Q96RR4). The experiment in a line: Inhibition of CAMKK2 (unknown origin).
Sequence of Calcium/calmodulin-dependent protein kinase kinase 2 (Q96RR4 whole entry): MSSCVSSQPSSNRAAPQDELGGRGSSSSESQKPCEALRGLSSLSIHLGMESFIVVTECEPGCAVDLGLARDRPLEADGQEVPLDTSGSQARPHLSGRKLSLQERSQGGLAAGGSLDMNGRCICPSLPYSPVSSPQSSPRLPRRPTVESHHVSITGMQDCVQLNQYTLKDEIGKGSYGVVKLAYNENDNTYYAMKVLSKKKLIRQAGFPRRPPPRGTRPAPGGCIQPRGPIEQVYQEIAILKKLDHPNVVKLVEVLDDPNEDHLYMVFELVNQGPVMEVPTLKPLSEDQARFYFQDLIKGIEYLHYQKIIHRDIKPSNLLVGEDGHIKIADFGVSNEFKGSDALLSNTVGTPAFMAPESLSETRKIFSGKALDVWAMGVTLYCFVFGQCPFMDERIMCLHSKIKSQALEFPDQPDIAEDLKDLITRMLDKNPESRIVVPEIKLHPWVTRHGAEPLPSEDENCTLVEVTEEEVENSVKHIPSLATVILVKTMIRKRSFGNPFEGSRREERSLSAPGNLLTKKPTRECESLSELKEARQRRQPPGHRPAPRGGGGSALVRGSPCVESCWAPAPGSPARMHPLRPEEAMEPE
For experiment [10], the target named is Leucine-rich repeat serine/threonine-protein kinase 2 (Homo sapiens, UniProt Q5S007). The experiment in a line: Inhibition of LRRK2 (unknown origin).
For experiment [11], the target named is T6, Tyrosine-protein kinase Lck (Homo sapiens, UniProt P06239). Briefly: Inhibition of LCK (unknown origin) using tamra-p34cdc-derived peptide as substrate after 30 mins.
T6 sequence (P06239 whole entry): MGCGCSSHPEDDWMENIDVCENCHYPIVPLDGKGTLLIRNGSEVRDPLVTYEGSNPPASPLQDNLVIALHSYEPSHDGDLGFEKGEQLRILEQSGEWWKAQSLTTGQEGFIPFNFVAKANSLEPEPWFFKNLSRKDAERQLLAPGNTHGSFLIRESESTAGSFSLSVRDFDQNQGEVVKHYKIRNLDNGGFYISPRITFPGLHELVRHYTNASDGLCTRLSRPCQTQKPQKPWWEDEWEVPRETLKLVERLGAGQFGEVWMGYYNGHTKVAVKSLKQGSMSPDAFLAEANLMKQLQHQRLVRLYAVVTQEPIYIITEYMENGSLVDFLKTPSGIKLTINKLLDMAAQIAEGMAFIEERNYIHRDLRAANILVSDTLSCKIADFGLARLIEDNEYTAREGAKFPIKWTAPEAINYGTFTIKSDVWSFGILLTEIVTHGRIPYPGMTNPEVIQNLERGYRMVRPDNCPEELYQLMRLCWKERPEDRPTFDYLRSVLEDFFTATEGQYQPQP
For experiment [12], the target named is T6, Tyrosine-protein kinase Lck. Briefly: Inhibition of LCK (unknown origin).
In experiment [13] the target is T7, Cytoplasmic tyrosine-protein kinase BMX (Homo sapiens, UniProt P51813).
T7 sequence (P51813 whole entry): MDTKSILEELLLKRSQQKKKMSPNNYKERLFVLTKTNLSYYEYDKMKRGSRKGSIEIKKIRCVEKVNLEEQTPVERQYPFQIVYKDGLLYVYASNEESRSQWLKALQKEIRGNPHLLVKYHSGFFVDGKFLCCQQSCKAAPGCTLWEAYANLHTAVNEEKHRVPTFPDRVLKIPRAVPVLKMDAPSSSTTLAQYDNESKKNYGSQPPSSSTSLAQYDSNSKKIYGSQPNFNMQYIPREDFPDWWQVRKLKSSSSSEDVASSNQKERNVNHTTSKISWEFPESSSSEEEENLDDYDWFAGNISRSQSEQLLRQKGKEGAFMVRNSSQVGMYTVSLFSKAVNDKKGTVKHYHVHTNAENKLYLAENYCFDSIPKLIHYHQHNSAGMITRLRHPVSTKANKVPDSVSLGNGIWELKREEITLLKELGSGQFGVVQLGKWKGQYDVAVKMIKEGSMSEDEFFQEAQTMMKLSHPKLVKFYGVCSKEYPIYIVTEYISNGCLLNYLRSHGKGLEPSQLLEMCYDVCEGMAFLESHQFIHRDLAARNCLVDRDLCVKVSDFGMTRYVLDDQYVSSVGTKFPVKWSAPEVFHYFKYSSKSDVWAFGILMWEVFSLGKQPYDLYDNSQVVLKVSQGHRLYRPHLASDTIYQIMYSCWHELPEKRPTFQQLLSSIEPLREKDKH
Briefly: Inhibition of Bmx (unknown origin).

The target of experiment [14] is Proto-oncogene tyrosine-protein kinase Src (Homo sapiens, UniProt P12931). Briefly: Inhibition of Src (unknown origin).
Sequence of Proto-oncogene tyrosine-protein kinase Src (P12931 2-536 limits assumed): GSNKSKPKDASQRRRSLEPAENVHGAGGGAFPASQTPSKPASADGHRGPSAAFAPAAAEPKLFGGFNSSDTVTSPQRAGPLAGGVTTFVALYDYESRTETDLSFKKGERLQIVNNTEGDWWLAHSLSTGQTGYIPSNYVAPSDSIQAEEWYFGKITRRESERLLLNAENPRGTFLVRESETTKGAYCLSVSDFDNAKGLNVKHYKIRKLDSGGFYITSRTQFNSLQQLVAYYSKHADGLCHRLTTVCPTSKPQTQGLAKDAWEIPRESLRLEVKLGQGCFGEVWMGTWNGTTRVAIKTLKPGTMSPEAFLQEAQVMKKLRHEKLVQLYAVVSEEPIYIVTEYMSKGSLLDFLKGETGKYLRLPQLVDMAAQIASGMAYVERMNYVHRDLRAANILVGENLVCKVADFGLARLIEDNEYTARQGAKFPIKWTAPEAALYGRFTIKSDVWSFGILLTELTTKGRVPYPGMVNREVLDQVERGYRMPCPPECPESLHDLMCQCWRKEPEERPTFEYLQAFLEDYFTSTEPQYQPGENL

Sequence of Tyrosine-protein kinase BTK (Q06187 whole entry): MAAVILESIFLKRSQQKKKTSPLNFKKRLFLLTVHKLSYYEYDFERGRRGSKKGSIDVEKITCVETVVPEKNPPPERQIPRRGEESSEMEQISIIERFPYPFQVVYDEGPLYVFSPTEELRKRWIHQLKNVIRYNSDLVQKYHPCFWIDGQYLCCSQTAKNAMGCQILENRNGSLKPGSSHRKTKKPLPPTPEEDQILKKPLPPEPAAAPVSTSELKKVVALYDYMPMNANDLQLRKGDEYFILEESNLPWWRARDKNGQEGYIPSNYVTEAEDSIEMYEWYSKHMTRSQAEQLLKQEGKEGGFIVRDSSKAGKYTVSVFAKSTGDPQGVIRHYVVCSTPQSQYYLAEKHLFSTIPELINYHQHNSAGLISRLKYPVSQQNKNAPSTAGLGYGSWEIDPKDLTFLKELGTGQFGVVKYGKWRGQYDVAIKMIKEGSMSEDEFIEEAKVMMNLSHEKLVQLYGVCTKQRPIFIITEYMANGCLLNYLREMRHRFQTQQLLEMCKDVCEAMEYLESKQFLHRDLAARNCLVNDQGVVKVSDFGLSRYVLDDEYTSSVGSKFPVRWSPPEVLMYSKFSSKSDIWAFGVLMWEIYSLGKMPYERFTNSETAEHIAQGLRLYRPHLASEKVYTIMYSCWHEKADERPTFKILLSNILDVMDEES

Take `CCc1ccc2nc(Nc3cc(Cc4ccccc4)nc(N[C@H]4CC[C@H](O)CC4)n3)sc2c1`: the IC50 was 79.4 nM in [1]; 158 nM against Insulin receptor; 50.1 nM with PBMC; 251 nM in experiment [3]; 316 nM in experiment [5]; 398 nM on Aurora kinase B [6]. Moreover, the half-inhibitory concentration (IC50) in [7] was 3.98 nM; in [8], 631 nM; in experiment [9] it was 200 nM; in experiment [10], 398 nM; in experiment [12], 126 nM; in experiment [13], 158 nM. The compound also had an IC50 in experiment [14] of 39.8 nM. The inhibitory constant (Ki) was 398 nM on Aurora kinase B [2], 0.631 nM in experiment [4] and 100 nM in experiment [11].

Source of the values: ChEMBL document CHEMBL2440060, “Identification of a Novel and Selective Series of Itk Inhibitors via a Template-Hopping Strategy” (ACS Med Chem Lett, 2013).
